In patent US12466784B2, “Analogs of pterostilbene amino acid bearing carbonates for treating a non-alcoholic fatty liver disease and nonalcoholic steatohepatitis” (APICAL MOLECULAR BIOTECH CO., LTD., priority 2020, dated 2025):
Values joined by “and” are separate entries in the source; they are usually repeats but may differ in a detail not shown here. Equal values may be shown once.

What was measured:
[1] = tested on: hepatic steatosis induced by MCD diet; assay: Histological examination (H&E stain) of liver of MCD diet mice; format: in vivo, Male C57BL/6 mice; conditions: for effect on MCD diet-induced steatohepatitis (H&E staining), in words / Steatosis / Ballooning / Fibrosis / Inflammation / Scores: MCD diet mice; for effect on MCD diet-induced steatohepatitis (H&E staining), in words / Avg / Ballooning / Fibrosis / Inflammation / Sum / Scores: 100 mg/kg oral; for Avg: average of Scores of the group; for Avg / Ballooning / Fibrosis / Inflammation / Sum / Scores: PG/TPSG (1:1); for Steatosis / Ballooning / Fibrosis / Inflammation: score per animal; for Steatosis: 100 mg/kg oral once daily, 5 times a week, in PG/TPSG (1:1); for Sum: sum of Scores of the 4 animals of the group; for Scores: total score per animal
Description: (§1) Animals and experimental protocol: Male C57BL/6 mice, 4 weeks of age, were purchased from Laboratory Animal Center (Taiwan, China) were maintained under the procedures and guidelines provided by the Institutional Animal Care and Use Committee of the Health Research Institutes (Taiwan, China). They were maintained with free access to pellet food and water in stainless-steel cages at a temperature of 21±2° C. with a 12 h light/dark cycle.
(§2) Mice were randomly divided into five groups and treated as follows: (1) MCD diet+PG/TPSG (2) MCD diet+100 mg/kg all compounds. After 28 days, animals were sacrificed for the collection of blood for determination of plasma ALT and AST concentrations, and liver samples for H&E stain.
(§3) After 28 days, animals were sacrificed for the collection of blood for determination of plasma ALT and AST concentrations, and liver samples for H&E stain.

[2] = tested on: MCD diet NASH mice; assay: Serum AST and ALT of compounds treated-NASH mice (MCD diet); format: in vivo, Male C57BL/6 mice; conditions: MCD diet mice; for Serum ALT (U/L) / Serum AST (U/L): 100 mg/kg oral, PG/TPSG (1:1); for effect on serum concentrations of AST and ALT, in words: 100 mg/kg oral (Table 2)
Description: as §1, §2, §3

[3] = In vitro stability in pH 1.2 solution (USP Gastric fluid without enzymes); conditions: 37° C.
Description: Sample collection: At 0, 0.17, 0.5, 1, 2, 4 and 6 h, 100 mL of aliquots were taken from the incubation mixture and placed into centrifuge tubes containing 100 μL of ice-cold acetonitrile and 1 μm internal standard where the reaction was terminated.

SMILES | effect on MCD diet-induced steatohepatitis (H&E staining), in words [1] | Avg [1] | Steatosis ([1]; hydrochloride, 100 mg/kg) | Ballooning [1] | Fibrosis [1] | Inflammation ([1]; hydrochloride, 100 mg/kg) | Sum [1] | Scores ([1]; hydrochloride, 100 mg/kg) | Serum ALT (U/L) [2] [U/L] | Serum AST (U/L) [2] [U/L] | compound remaining in pH = 1.2 solution (%) ([3]; Time 0 h) | compound remaining in pH = 1.2 solution (%) ([3]; Time 0.167 h) | compound remaining in pH = 1.2 solution (%) ([3]; Time 0.5 h) | compound remaining in pH = 1.2 solution (%) ([3]; Time 1 h) | compound remaining in pH = 1.2 solution (%) ([3]; Time 2 h) | compound remaining in pH = 1.2 solution (%) ([3]; Time 4 h) | effect on serum concentrations of AST and ALT, in words [2] | other results
CCOc1cc(/C=C/c2ccc(OC(=O)OCCNC(=O)CN)cc2)cc(OCC)c1.Cl [Compound 6b, (E)-2-(2-aminoacetamido)ethyl (4-(3,5-diethoxystyryl)phenyl) carbonate hydrochloride] | prevented MCD diet-induced steatohepatitis | 7.00 | 3 (2×) and 2 (2×) | 2 | 0 | 3 (2×) and 2 (2×) | 28 | 8 (2×) and 6 (2×) | 454.38 | 408.75 | 100.0 | 130.5 | 103.9 | 111.7 | 97.9 | 99.2 |  | 
Cl.[2H]C([2H])([2H])Oc1cc(/C=C/c2ccc(OC(=O)OCCNC(=O)CN)cc2)cc(OC([2H])([2H])[2H])c1 [Compound 6a, (E)-2-(2-aminoacetamido)ethyl (4-(3,5-bis(methoxy-d3)styryl-d6)phenyl) carbonate hydrochloride] | prevented MCD diet-induced steatohepatitis | 7.00 | 3 (2×) and 2 (2×) | 2 | 0 | 3 (2×) and 2 (2×) | 28 | 8 and 7 (2×) and 6 | 402.63 | 555.25 | 100.0 | 106.4 | 101.2 | 119.4 | 101.5 | 104.6 |  | 
COc1cc(/C=C/c2ccc(OC(=O)OCCNC(=O)CN)cc2)cc(OC)c1.Cl [Compound 5a, (E)-2-(2-aminoacetamido)ethyl (4-(3,5-dimethoxystyryl)phenyl) carbonate hydrochloride] | prevented MCD diet-induced steatohepatitis | 7.75 |  | 2 | 0 | 3 (3×) and 2 | 31 | 8 (3×) and 7 | 251.75 | 283.00 | 100.0 | 104.6 | 104.0 | 110.2 | 101.7 | 103.5 | significantly inhibited the serum concentrations of AST and ALT | Steatosis [1]: 3
COc1cc(/C=C/c2ccc(OC(=O)OCCNC(=O)C(N)Cc3ncc[nH]3)cc2)cc(OC)c1.Cl.Cl (stereo not drawn) [Compound 5m, (E)-2-(2-amino-3-(1H-imidazol-2-yl)propanamido)ethyl (4-(3,5-dimethoxy styryl)phenyl) carbonate dihydrochloride] | prevented MCD diet-induced steatohepatitis | 7.25 |  | 2 | 0 |  | 29 |  | 190.88 | 381.75 | 100.0 | 88.6 | 109.8 | 113.5 | 102.6 | 85.6 | significantly inhibited the serum concentrations of AST and ALT | Steatosis ([1]; dihydrochloride, 100 mg/kg): 2 (2×) and 3 (2×); Inflammation ([1]; dihydrochloride, 100 mg/kg): 3 (3×) and 2; Scores ([1]; dihydrochloride, 100 mg/kg): 7 and 8 (2×) and 6
